We go through 53 molecules from ChEMBL document CHEMBL1629418, “Spiroimidazolidinone NPC1L1 inhibitors. Part 2: structure-activity studies and in vivo efficacy” (Bioorg Med Chem Lett, 2010).

This assay has as its target T1, NPC1-like intracellular cholesterol transporter 1 (Homo sapiens, UniProt Q9UHC9).
T1 sequence (Q9UHC9 whole entry): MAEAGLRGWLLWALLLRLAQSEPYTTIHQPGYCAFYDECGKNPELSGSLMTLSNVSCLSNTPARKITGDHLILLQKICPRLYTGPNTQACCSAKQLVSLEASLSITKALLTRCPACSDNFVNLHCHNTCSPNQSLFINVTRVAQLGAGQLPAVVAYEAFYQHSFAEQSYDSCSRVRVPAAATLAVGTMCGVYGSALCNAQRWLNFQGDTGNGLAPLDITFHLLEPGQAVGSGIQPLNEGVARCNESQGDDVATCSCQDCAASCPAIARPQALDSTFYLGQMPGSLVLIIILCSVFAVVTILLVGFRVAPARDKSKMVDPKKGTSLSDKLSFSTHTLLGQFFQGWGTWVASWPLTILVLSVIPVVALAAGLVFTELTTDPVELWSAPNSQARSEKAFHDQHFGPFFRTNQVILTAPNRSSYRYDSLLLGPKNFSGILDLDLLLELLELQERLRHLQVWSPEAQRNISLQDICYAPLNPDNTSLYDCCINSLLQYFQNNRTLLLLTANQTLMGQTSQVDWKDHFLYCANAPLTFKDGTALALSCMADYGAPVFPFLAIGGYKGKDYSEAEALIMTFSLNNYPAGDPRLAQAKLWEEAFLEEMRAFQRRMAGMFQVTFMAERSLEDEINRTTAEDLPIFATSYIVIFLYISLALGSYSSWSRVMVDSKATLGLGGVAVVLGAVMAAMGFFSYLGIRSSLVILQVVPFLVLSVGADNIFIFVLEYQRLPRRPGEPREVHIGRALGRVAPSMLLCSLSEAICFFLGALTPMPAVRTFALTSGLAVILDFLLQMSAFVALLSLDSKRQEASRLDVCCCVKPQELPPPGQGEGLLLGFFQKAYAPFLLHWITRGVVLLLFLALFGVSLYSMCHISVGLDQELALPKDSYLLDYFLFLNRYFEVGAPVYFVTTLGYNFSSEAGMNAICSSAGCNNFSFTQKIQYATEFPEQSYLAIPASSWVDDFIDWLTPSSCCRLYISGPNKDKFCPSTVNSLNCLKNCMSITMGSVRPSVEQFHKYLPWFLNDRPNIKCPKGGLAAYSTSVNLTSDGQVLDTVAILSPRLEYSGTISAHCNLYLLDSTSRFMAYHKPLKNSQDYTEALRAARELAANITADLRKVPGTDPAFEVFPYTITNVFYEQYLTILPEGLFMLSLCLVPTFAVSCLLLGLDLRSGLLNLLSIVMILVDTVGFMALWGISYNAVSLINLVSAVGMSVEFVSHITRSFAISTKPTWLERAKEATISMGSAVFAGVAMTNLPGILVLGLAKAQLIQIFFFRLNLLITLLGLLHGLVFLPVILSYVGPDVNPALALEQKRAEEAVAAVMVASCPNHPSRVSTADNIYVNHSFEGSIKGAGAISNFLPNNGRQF
Briefly: Displacement of [35S](2S,3S,4S,5R,6S)-6-(4-((2S,3R)-3-((S)-3-(4-fluorophenyl)-3-hydroxypropyl)-1-(4-(3-(methylsulfonamido)prop-1-ynyl)phenyl)-4-oxoazetidin-2-yl)phenoxy)-3,4,5-trihydroxytetrahydro-2H-pyran-2-carboxylic acid from human NCP1L1 expressed in HEK 293. Type of assay: cell-based, HEK293. On the technique in general: Displacement assays read how much labelled ligand stays bound in the presence of the test substance.
The term IC50 denotes the concentration at which inhibition is half-maximal. The low end stands for higher potency, the high end for lower potency. For `CS(=O)(=O)N1CCN(C(=O)CN2CN(c3ccccc3)C3(CCN(C(=O)c4ccc(C5CCCCC5)cc4)CC3)C2=O)CC1`, the IC50 came out at 6.3 µM.

For `CC(C)(C)c1ccc(C(=O)N2CCC3(CC2)C(=O)N(CC(=O)N2CCCC(CO)C2)CN3c2ccccc2)cc1` (stereo not drawn), the half-maximal inhibitory concentration (IC50) is 8.2 µM.

With `CC(C)(C)OC(=O)NCCCCNC(=O)CN1CN(c2ccccc2)C2(CCN(C(=O)c3ccc(C4CCCCC4)cc3)CC2)C1=O`, the 50% inhibitory concentration (IC50) is 5.5 µM.

`CCc1c(C)c(C2CCN(C(=O)CN3CN(c4ccccc4)C4(CCN(C(=O)c5ccc(C(C)(C)C)cc5)CC4)C3=O)CC2)nn1CC` had a half-inhibitory concentration (IC50) of 5.4 µM.

Molecule `CC(C)(C)c1ccc(C(=O)N2CCC3(CC2)C(=O)N(CC(=O)N2CCN(S(=O)(=O)c4ccccc4)CC2)CN3c2ccccc2)cc1` came in with a concentration for half-maximal inhibition (IC50) of 15 µM.

For `CCOC(=O)C1CCN(C(=O)CN2CN(c3ccccc3)C3(CCN(C(=O)c4ccc(C5CCCCC5)cc4)CC3)C2=O)CC1`, the half-inhibitory concentration (IC50) turned out to be 0.9 µM.

On to `CCOC(=O)C1CCCN(C(=O)CN2CN(c3ccccc3)C3(CCN(C(=O)c4ccc(C(C)(C)C)cc4)CC3)C2=O)C1` (stereo not drawn), for which the 50% inhibitory concentration (IC50) worked out at 8.2 µM.

On to `CC(C)(C)c1ccc(C(=O)N2CCC3(CC2)C(=O)N(CC(=O)NCCNS(C)(=O)=O)CN3c2ccccc2)cc1`, for which the IC50 amounted to 49 µM.

In the case of `CC(C)(C)c1ccc(C(=O)N2CCC3(CC2)C(=O)N(CC(=O)NCCCCNS(C)(=O)=O)CN3c2ccccc2)cc1`, the IC50 was found to be 10.3 µM.

Molecule `CCN(CC)C(=O)C1CCCN(C(=O)CN2CN(c3ccccc3)C3(CCN(C(=O)c4ccc(C5CCCCC5)cc4)CC3)C2=O)C1` (stereo not drawn) came in with an IC50 of 3.3 µM.

`CC(C)(C)c1ccc(C(=O)N2CCC3(CC2)C(=O)N(CC(=O)N2CCC(O)CC2)CN3c2ccccc2)cc1`: the IC50 came to 4.7 µM.

In turn, `COC(=O)CCCNC(=O)CN1CN(c2ccccc2)C2(CCN(C(=O)c3ccc(C4CCCCC4)cc3)CC2)C1=O` showed an IC50 of 4.5 µM.

`CC(C)(C)c1ccc(C(=O)N2CCC3(CC2)C(=O)N(CC(=O)NCCCCO)CN3c2ccccc2)cc1` gave an IC50 of 8.3 µM.

Consider `CC(C)(C)c1ccc(C(=O)N2CCC3(CC2)C(=O)N(CC(=O)NCCCN)CN3c2ccccc2)cc1`, for which the half-maximal inhibitory concentration (IC50) came to 49 µM.

`COC(=O)CCNC(=O)CN1CN(c2ccccc2)C2(CCN(C(=O)c3ccc(C4CCCCC4)cc3)CC2)C1=O`: the half-maximal inhibitory concentration (IC50) turned out to be 4.5 µM.

In turn, `CC(C)(C)c1ccc(C(=O)N2CCC3(CC2)C(=O)N(CC(=O)NCCN)CN3c2ccccc2)cc1` showed a half-maximal inhibitory concentration (IC50) of 59 µM.

`CC(C)(C)c1ccc(C(=O)N2CCC3(CC2)C(=O)N(CC(=O)N2CCCCC2CCO)CN3c2ccccc2)cc1` (stereo not drawn) displayed an IC50 of 6.1 µM.

`NC(=O)C1CCCN(C(=O)CN2CN(c3ccccc3)C3(CCN(C(=O)c4ccc(C5CCCCC5)cc4)CC3)C2=O)C1` (stereo not drawn) came in with a 50% inhibitory concentration (IC50) of 3.1 µM.

For the molecule `CC(C)(C)OC(=O)NCCNC(=O)CN1CN(c2ccccc2)C2(CCN(C(=O)c3ccc(C(C)(C)C)cc3)CC2)C1=O`, the 50% inhibitory concentration (IC50) stood at 9.4 µM.

In turn, `CC1(C)CC(OC(=O)CN2CN(c3ccccc3)C3(CCN(C(=O)c4ccc(C5CCCCC5)cc4)CC3)C2=O)CC(C)(C)N1` gave an IC50 of 0.6 µM.

Turning to `CC(C)(C)c1ccc(C(=O)N2CCC3(CC2)C(=O)N(CC(=O)N2CCCC(O)C2)CN3c2ccccc2)cc1` (stereo not drawn), the half-inhibitory concentration (IC50) stood at 12.2 µM.

As for `CC(C)(C)OC(=O)NCC1CCN(C(=O)CN2CN(c3ccccc3)C3(CCN(C(=O)c4ccc(C(C)(C)C)cc4)CC3)C2=O)CC1`, the IC50 turned out to be 4.2 µM.

`CC(C)(C)OC(=O)NCC1CCCN(C(=O)CN2CN(c3ccccc3)C3(CCN(C(=O)c4ccc(C5CCCCC5)cc4)CC3)C2=O)C1` (stereo not drawn): the IC50 is 3.8 µM.

Take `CC(C)(C)c1ccc(C(=O)N2CCC3(CC2)C(=O)N(CC(=O)N2CCC(CCO)CC2)CN3c2ccccc2)cc1`: the IC50 was 2.6 µM.

For `CC(C)(C)OC(=O)NCCCCCNC(=O)CN1CN(c2ccccc2)C2(CCN(C(=O)c3ccc(C(C)(C)C)cc3)CC2)C1=O`, the half-maximal inhibitory concentration (IC50) turned out to be 3.1 µM.

Molecule `CC(C)(C)c1ccc(C(=O)N2CCC3(CC2)C(=O)N(CC(=O)N2CCCC(C(N)=O)C2)CN3c2ccccc2)cc1` (stereo not drawn) had an IC50 of 16.9 µM.

For the molecule `CS(=O)(=O)NCCNC(=O)CN1CN(c2ccccc2)C2(CCN(C(=O)c3ccc(C4CCCCC4)cc3)CC2)C1=O`, the IC50 is 7 µM.

In turn, `CC(C)(C)OC(=O)NCCNC(=O)CN1CN(c2ccccc2)C2(CCN(C(=O)c3ccc(C4CCCCC4)cc3)CC2)C1=O` showed an IC50 of 13.7 µM.

On to `NCCCNC(=O)CN1CN(c2ccccc2)C2(CCN(C(=O)c3ccc(C4CCCCC4)cc3)CC2)C1=O`, for which the IC50 came to 3.1 µM.

Turning to `CC(C)(C)c1ccc(C(=O)N2CCC3(CC2)C(=O)N(CC(=O)NCCCNS(C)(=O)=O)CN3c2ccccc2)cc1`, the IC50 worked out at 10.4 µM.

Molecule `CC1(C)CC(OC(=O)CN2CN(c3ccccc3)C3(CCN(C(=O)c4ccc(C(C)(C)C)cc4)CC3)C2=O)CC(C)(C)N1` showed an IC50 of 1.3 µM.

Turning to `CC(C)(C)OC(=O)NCC1CCCN(C(=O)CN2CN(c3ccccc3)C3(CCN(C(=O)c4ccc(C(C)(C)C)cc4)CC3)C2=O)C1` (stereo not drawn), the IC50 turned out to be 9.5 µM.

In turn, `CC(C)(C)OC(=O)NC1CCCN(C(=O)CN2CN(c3ccccc3)C3(CCN(C(=O)c4ccc(C5CCCCC5)cc4)CC3)C2=O)C1` (stereo not drawn) returned a 50% inhibitory concentration (IC50) of 4.4 µM.

`CCC1CCCN(C(=O)CN2CN(c3ccccc3)C3(CCN(C(=O)c4ccc(C5CCCCC5)cc4)CC3)C2=O)C1` (stereo not drawn): the 50% inhibitory concentration (IC50) stood at 2.6 µM.

`CCN(CC)C(=O)C1CCCN(C(=O)CN2CN(c3ccccc3)C3(CCN(C(=O)c4ccc(C(C)(C)C)cc4)CC3)C2=O)C1` (stereo not drawn) registered a half-inhibitory concentration (IC50) of 8.7 µM.

In turn, `CC(C)(C)OC(=O)NCCCNC(=O)CN1CN(c2ccccc2)C2(CCN(C(=O)c3ccc(C4CCCCC4)cc3)CC2)C1=O` yielded an IC50 of 3.7 µM.

As to `NCCNC(=O)CN1CN(c2ccccc2)C2(CCN(C(=O)c3ccc(C4CCCCC4)cc3)CC2)C1=O`, the half-maximal inhibitory concentration (IC50) stood at 26.5 µM.

`COC(=O)CNC(=O)CN1CN(c2ccccc2)C2(CCN(C(=O)c3ccc(C4CCCCC4)cc3)CC2)C1=O` had a half-inhibitory concentration (IC50) of 3.7 µM.

`CC(C)(C)c1ccc(C(=O)N2CCC3(CC2)C(=O)N(CC(=O)N2CCCCC2CO)CN3c2ccccc2)cc1` (stereo not drawn) returned a concentration for half-maximal inhibition (IC50) of 11.8 µM.

`O=C(CN1CN(c2ccccc2)C2(CCN(C(=O)c3ccc(C4CCCCC4)cc3)CC2)C1=O)N1CCCCC1` yielded a half-maximal inhibitory concentration (IC50) of 1.1 µM.

The molecule `CC(C)(C)c1ccc(C(=O)N2CCC3(CC2)C(=O)N(CC(=O)NCCC(=O)O)CN3c2ccccc2)cc1` showed an IC50 of 23.6 µM.

Turning to `CC(C)(C)OC(=O)NCC1CCN(C(=O)CN2CN(c3ccccc3)C3(CCN(C(=O)c4ccc(C5CCCCC5)cc4)CC3)C2=O)CC1`, the IC50 stood at 2.5 µM.

`CC(C)(C)c1ccc(C(=O)N2CCC3(CC2)C(=O)N(CC(=O)N2CCN(S(C)(=O)=O)CC2)CN3c2ccccc2)cc1` showed a half-inhibitory concentration (IC50) of 19 µM.

For the molecule `CC(C)(C)c1ccc(C(=O)N2CCC3(CC2)C(=O)N(CC(=O)NCCCO)CN3c2ccccc2)cc1`, the half-inhibitory concentration (IC50) was determined as 23.6 µM.

In turn, `O=C(CN1CN(c2ccccc2)C2(CCN(C(=O)c3ccc(C4CCCCC4)cc3)CC2)C1=O)N1CCN(S(=O)(=O)c2ccccc2)CC1` had an IC50 of 14.2 µM.

Molecule `CC(C)(C)c1ccc(C(=O)N2CCC3(CC2)C(=O)N(CC(=O)NCCCCN)CN3c2ccccc2)cc1` had an IC50 of 14 µM.

As for `CC(C)(C)OC(=O)NCNC(=O)CN1CN(c2ccccc2)C2(CCN(C(=O)c3ccc(C(C)(C)C)cc3)CC2)C1=O`, the half-inhibitory concentration (IC50) came out at 59 µM.

Molecule `CC(C)(C)c1ccc(C(=O)N2CCC3(CC2)C(=O)N(CC(=O)NCCO)CN3c2ccccc2)cc1` had an IC50 of 19.2 µM.

`CC(C)(C)OC(=O)NC1CCCN(C(=O)CN2CN(c3ccccc3)C3(CCN(C(=O)c4ccc(C(C)(C)C)cc4)CC3)C2=O)C1` (stereo not drawn) had an IC50 of 4.2 µM.

The molecule `CC(C)(C)OC(=O)NC1CCN(C(=O)CN2CN(c3ccccc3)C3(CCN(C(=O)c4ccc(C(C)(C)C)cc4)CC3)C2=O)CC1` yielded a concentration for half-maximal inhibition (IC50) of 8.3 µM.

As to `CCc1nn(CC)c(C2CCN(C(=O)CN3CN(c4ccccc4)C4(CCN(C(=O)c5ccc(C(C)(C)C)cc5)CC4)C3=O)CC2)c1CC`, the concentration for half-maximal inhibition (IC50) is 4.6 µM.

On to `CCOC(=O)C1CCCN(C(=O)CN2CN(c3ccccc3)C3(CCN(C(=O)c4ccc(C5CCCCC5)cc4)CC3)C2=O)C1` (stereo not drawn), for which the half-inhibitory concentration (IC50) was 4.2 µM.

Consider `CC1CCCN(C(=O)CN2CN(c3ccccc3)C3(CCN(C(=O)c4ccc(C(C)(C)C)cc4)CC3)C2=O)C1` (stereo not drawn), for which the IC50 was 12 µM.
